Common to all, as to format: biochemical
The target of test [1] is Klebsiella pneumoniae ATCC 25955 B12-dependent glycerol dehydratase (GDH), wild type, SEQ ID NO: 1 (α, β, γ subunits SEQ ID NO: 2, 3, 4) (Klebsiella pneumoniae, UniProt O08505+Q59476). The test is described as follows: Time course of GDH reaction with glycerol, with and without 1,3-propanediol (permeabilized cells, FIG. 1). Further details: permeabilized cells (A1) or purified (A2-A4). Here is the method: FIG. 1 illustrates the typical time course associated with GDH inactivation. These enzyme activity assays were conducted using the GDH encoded by dhaB1, dhaB2, and dhaB3 (SEQ ID NO:1 and SEQ ID NO: 2, 3, and 4, respectively) of K. pneumoniae (WO 01/012833A2).
Cells were permeabilized as follows: aliquots of culture (0.3 mL) were dispensed into the square wells of a polypropylene deep-well plate (Beckman-Coulter, Fullerton, Calif.) and 10 μL of toluene containing 2.5% (v/v) Triton X-100 detergent was added to each well. Plates were then shaken for 10 min at top speed on an IKA MTS4 shaker (IKA-Werke Gmbh., Staufen, Germany). Working under red light to protect the coenzyme B12, reactions were started by adding 5 volumes of substrate solution to 1 volume of permeabilized cell suspension. The substrate solution contained 12 mM glycerol and 24 μM coenzyme B12 in 0.1 M K-Hepes, pH 8. At timed intervals, 12.5 μl aliquots of the reaction were added to the wells of a 96-well plate which contained 12.5 μl of 3 mg/mL MBTH in 0.4 M glycine-HCl, pH 2.7. At least 20 min after sampling, 125 μL of 5.5 mM FeCl3 in 10 mM HCl was added to each of the MBTH-containing samples. After a further 20 min or longer, the blue color associated with GDH activity was quantitated as absorbance at 670 nm using a Spectramax 160 plate reader (Molecular Devices, Sunnyvale, Calif.). A similar experiment was conducted in which the substrate solution was supplemented with 50 mM 1,3-propanediol.
The rate of product formation decreases rapidly with time as inactivation occurs. A theoretical curve was drawn through the points by fitting three parameters to the following equation y=T0+amp(1−exp(−kinact obsd*time)). […] The fitting parameters are related to the kinetic properties of the reaction as follows: the amplitude is equal to the initial rate of the reaction (v) divided by the observed enzyme inactivation rate (kinact obsd). The initial rate is [GDH][gly]kcat/(Km+[gly]). […]

In test [2] the target is Klebsiella pneumoniae GDH variant Xba3009 (α-Thr77Ala, α-Cys193Ser, stop of α to Glu (α-β fusion), β-Lys56Arg, β-Ala88 silent, β-Asp111Glu, γ-His67Tyr, γ-Thr114 (Klebsiella pneumoniae, UniProt O08505+Q59476, C193S/D111E, form not given/K56R/T77A)). Conditions: Xba3009 (Type 4).
Test [3] deals with Klebsiella pneumoniae GDH variant Xba3007 (γ-Thr53Ala), SEQ ID NO: 40 (amino acid 41, 42, 43) (Klebsiella pneumoniae, UniProt O08505+Q59476). Conditions: Xba3007 (Type 1).
In test [4] the target is Klebsiella pneumoniae GDH variant Sma3002 (α-Tyr271Cys, α-Tyr502His, stop of α to Gln (α-β fusion), β-Gln2Arg, β-Phe11 silent), SEQ ID NO: 140 (amino acid 141, (Klebsiella pneumoniae, UniProt O08505+Q59476, form not given/Y271C/Y502H)). The note with it: Sma3002 (Type 2).

pKi: −log10 of the molar value.

Results on two compounds are retold here after patent publication US8569469B2, “B12-dependent dehydratases with improved reaction kinetics” (priority 2002, dated 2013).

In general, pKi refers to the negative decadic logarithm of the Ki, by convention in mol/L. Lower therefore signals a high Ki. The term Km denotes the substrate concentration at which the rate is half of its maximum.

On to `OCCCO` [1,3-propanediol], for which the pKi in test [1] was around 1.82. For the same compound, in test [1] (50 mM 1,3-propanediol, 10 mM glycerol, vs without 1,3-propanediol), the “inactivation, times faster with 1,3-propanediol” value was around 3 times. The inhibition at 50000 µM in test [1] (pH 8, read-out: reduction of initial rate of the reaction) was around 20%.
Regarding `OCC(O)CO` [glycerol], the kcat in test [2] was 65,373 min^−1; in test [3], 16,220 min^−1; in test [4], 9,830 min^−1. In addition, the Km in test [4] stood at 2940 µM.
